Drawing on patent publication US8399509B2, “Glucopyranoside derivatives” (Merck Patent Gesellschaft mit beschrankter Haftung, priority 2008, dated 2013), this text covers IC50 for twelve molecules.

One experiment concerns the target T1, SGLT1 (Homo sapiens, UniProt P13866).
T1 construct: expressed in transfected cells
T1 sequence (P13866 1-664): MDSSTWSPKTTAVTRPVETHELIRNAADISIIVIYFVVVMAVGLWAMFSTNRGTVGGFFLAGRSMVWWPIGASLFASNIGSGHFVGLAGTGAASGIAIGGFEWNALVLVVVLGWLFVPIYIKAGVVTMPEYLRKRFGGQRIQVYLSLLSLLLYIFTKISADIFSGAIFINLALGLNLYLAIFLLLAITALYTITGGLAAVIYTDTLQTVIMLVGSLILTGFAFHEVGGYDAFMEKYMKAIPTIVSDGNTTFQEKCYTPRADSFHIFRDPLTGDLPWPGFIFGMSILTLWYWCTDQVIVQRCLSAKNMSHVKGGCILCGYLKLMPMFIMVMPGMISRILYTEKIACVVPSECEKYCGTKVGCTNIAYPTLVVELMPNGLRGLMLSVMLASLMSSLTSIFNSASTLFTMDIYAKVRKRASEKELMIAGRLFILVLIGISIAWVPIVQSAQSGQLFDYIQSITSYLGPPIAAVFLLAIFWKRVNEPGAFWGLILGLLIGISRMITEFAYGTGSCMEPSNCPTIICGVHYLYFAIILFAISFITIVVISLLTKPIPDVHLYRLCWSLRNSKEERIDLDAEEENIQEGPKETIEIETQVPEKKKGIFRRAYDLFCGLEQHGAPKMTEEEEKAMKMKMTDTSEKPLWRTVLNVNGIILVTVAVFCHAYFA
Description: 14C-AMG uptake in BHK cells transfected with SGLT1. The conditions noted are these: 50 μM AMG, 37° C., 90 min. The experiment is classed as cell-based. The text has this: (§1) The compounds can be tested for their SGLT inhibition properties by means of BHK cells expressing SGLT1 and SGLT2. The production of the cells and the testing can be carried out as described below.
Construction and Expression of SGLT1 in BHK Cells
To construct the SGLT1 expression vector (KL225), the SLC5A1 gene (homologous to NM_000343) was amplified from a cDNA library using standard PCR technology and cloned over NheI/XhoI sites into the pcDNA3.1 expression vector (Invitrogen) containing neomycin as a selection marker. In this vector, transcription uses the enhancer/promoter of human cytomegalovirus.
(§2) The final vector KL225 together with an additional vector containing a dihydrofolate reductase gene as a selection marker was introduced into cells. Transfection into BHK21 cells (ATCC CCL-10), cultivated in DMEM medium (GIBCO/BRL), supplemented with 10% foetal calf serum (FCS) and 20 mM glutamine, was carried out using calcium phosphate transfections according to Graham, F. L. and van der Ebb, A. J. (1973), Virology 52: 456 with 5-20 μg of uncut plasmids for 10^7 cells. Stable transfectants were selected in medium containing 1 mg/ml of G418 (GIBCO/BRL) and 20-5000 nM methotrexate as final concentration, where only cells which expressed the neomycin gene and overexpressed the dhfr gene were able to grow. After growth for 2-3 weeks, the cells were cloned (0.5 cells/well) and the clones were investigated for SGLT expression in radioactivity uptake tests.
(§3) Method of SGLT1/2 Activity Measurement
(§4) The uptake of ^14C-α-methyl-D-glucopyranoside (AMG) in, for example, Xenopus oocytes injected with the corresponding cRNA has been described in principle (for example Wen-Sen Lee et al. (1994), J. Biol. Chem. 269, 12032-12039; Guofeng You et al. (1995), J. Biol. Chem. 270, 29365-29371).
(§5) A 96-well cell-based assay was developed and adapted to HTS requirements:
(§6) BHK cells (transfected with SGLT1 or SGLT2) were seeded into 96-well microtitre plates (Cultureplates, Perkin Elmer). After at least 24 h, medium was removed, and the cell layer was washed with assay buffer (140 mM NaCl, 2 mM KCl, 1 mM CaCl2, 1 mM MgCl2, 10 mM HEPES, 5 mM Tris, adjusted to pH 7.4 using 1 M KOH). After addition of 40 μl of assay buffer, 50 μl of AMG (50 μM for SGLT1 and 2 mM for SGLT2) in the presence or absence of compounds, the cells were incubated in a total volume of 100 μl at 37° C. for 90 min. Supernatant was removed by suction and discarded. Cells were washed and lysed by addition of 50 μl of water. After 10 min at room temperature, 200 μl of Micrsoscint 40 (Perkin Elmer) were added. The radioactivity was counted in a Topcount microplate scintillation counter (Perkin Elmer). The non-specific uptake was determined in sodium-free assay buffer (266 mM sucrose, 2 mM KCl, 1 mM CaCl2, 1 mM MgCl2, 10 mM HEPES, 5 mM Tris, adjusted to pH 7.4 using 1 M KOH).

The target in a further experiment is T2, SGLT2 (Homo sapiens, UniProt P31639).
T2 construct: expressed in transfected cells
T2 sequence (P31639 1-672): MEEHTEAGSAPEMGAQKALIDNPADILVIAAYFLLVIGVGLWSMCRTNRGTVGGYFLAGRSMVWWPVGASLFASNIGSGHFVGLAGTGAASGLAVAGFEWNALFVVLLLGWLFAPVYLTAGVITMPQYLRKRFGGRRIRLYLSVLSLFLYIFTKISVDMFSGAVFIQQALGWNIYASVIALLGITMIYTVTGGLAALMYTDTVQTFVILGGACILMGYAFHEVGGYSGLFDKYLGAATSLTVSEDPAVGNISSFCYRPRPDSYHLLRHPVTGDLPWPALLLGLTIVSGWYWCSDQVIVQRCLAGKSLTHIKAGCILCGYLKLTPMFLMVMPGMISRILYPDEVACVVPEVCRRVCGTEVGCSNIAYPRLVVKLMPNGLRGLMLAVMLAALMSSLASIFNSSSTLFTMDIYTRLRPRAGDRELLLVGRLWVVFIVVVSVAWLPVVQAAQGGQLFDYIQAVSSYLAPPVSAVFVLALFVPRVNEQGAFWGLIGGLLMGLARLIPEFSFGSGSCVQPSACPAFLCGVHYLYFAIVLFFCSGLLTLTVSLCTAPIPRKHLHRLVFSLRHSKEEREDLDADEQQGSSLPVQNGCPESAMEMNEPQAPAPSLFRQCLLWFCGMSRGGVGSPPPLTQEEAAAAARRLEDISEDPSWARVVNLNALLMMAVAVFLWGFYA
The experiment can be described thus: 14C-AMG uptake in BHK cells transfected with SGLT2. In kind it is cell-based. The following applies: 2 mM AMG, 37° C., 90 min.
Text: as §1
Construction and Expression of SGLT2 in BHK Cells
To construct the SGLT2 expression vector (KL224), the SLC5A2 gene (homologous to NM_003041) was amplified from a cDNA library using standard PCR technology and cloned over NheI/XhoI sites into PCI-neo expression vector (Promega) containing neomycin as a selection marker. In this vector, transcription uses the enhancer/promoter of human cytomegalovirus and the SV40 polyadenylation signal.
as §2, with “KL224” for “KL225”
as §3, §4, §5, §6

For “5-(β-D-Glucopyranos-1-yl)-3-(4-methoxyphenyl)benzofuran [Compound A7]”, the IC50 was over 10 µM on SGLT1 and 1 to 10 µM against SGLT2.
On the same counts, the results for “5-(β-D-glucopyranos-1-yl)-2-(4-methoxyphenyl)benzofuran [Compound A8]” are over 10 µM and over 10 µM.
With “6-(β-D-glucopyranos-1-yl)-1R-(4-methoxyphenyl)indane [Compound A3]”, the IC50 on SGLT1 and against SGLT2 was over 10 µM in each case.
As for “6-(β-D-glucopyranos-1-yl)-3R-(4-methoxyphenyl)indane [Compound A14]”, the IC50 at SGLT1 and at SGLT2 was over 10 µM in each case.
As for `COc1ccc(C2CCc3ccc([C@@H]4O[C@H](CO)[C@@H](O)[C@H](O)[C@H]4O)cc32)cc1` (stereo partly drawn) [Compound A1, 6-(β-D-glucopyranos-1-yl)-1-(4-methoxyphenyl)indane], the IC50 is over 10 µM against SGLT1 and 0.01 to 1 µM against SGLT2.
Consider `COc1ccc([C@@H]2CCc3ccc([C@@H]4O[C@H](CO)[C@@H](O)[C@H](O)[C@H]4O)cc32)cc1` [Compound A2, 6-(β-D-glucopyranos-1-yl)-1S-(4-methoxyphenyl)indane], for which the IC50 at SGLT1 was over 10 µM; on SGLT2 it was 0.01 to 1 µM.
On the same counts, the results for `CCOc1ccc(C2CCc3ccc([C@@H]4O[C@H](CO)[C@@H](O)[C@H](O)[C@H]4O)cc32)cc1` (stereo partly drawn) [Compound A4, 6-(β-D-Glucopyranos-1-yl)-1-(4-ethoxyphenyl)indane] are over 10 µM and 0.01 to 1 µM.
Taken in the same sequence, the figures for `COc1ccc(C2CCCc3ccc([C@@H]4O[C@H](CO)[C@@H](O)[C@H](O)[C@H]4O)cc32)cc1` (stereo partly drawn) [Compound A5, 7-(β-D-Glucopyranos-1-yl)-1-(4-methoxyphenyl)-1,2,3,4-tetrahydro-naphthalene] were over 10 µM and 0.01 to 1 µM.
Regarding `COc1ccc(C2=CCCc3ccc([C@]4(OC)O[C@H](CO)[C@@H](O)[C@H](O)[C@H]4O)cc32)cc1` [Compound A6, 7-(1-Methoxy-D-glucopyranos-1-yl)-1-(4-methoxyphenyl)-3,4-dihydronaphthalene], the IC50 against SGLT1 and against SGLT2 was over 10 µM each time.
In the case of `COc1ccc(C2COc3ccc([C@@H]4O[C@H](CO)[C@@H](O)[C@H](O)[C@H]4O)cc32)cc1` (stereo partly drawn) [Compound A9, 5-(β-D-Glucopyranos-1-yl)-3-(4-methoxyphenyl)-2,3-dihydrobenzofuran], the figures for the half-inhibitory concentration (IC50) against SGLT1 and against SGLT2 were over 10 µM and 0.01 to 1 µM, respectively.
On the same counts, the results for `CCOc1ccc(-n2ccc3ccc([C@@H]4O[C@H](CO)[C@@H](O)[C@H](O)[C@H]4O)cc32)cc1` [Compound A12, 6-(β-D-Glucopyranos-1-yl)-1-(4-ethoxyphenyl)indole] are over 10 µM and over 10 µM.
For `COc1ccc([C@@H]2COc3ccc([C@@H]4O[C@H](CO)[C@@H](O)[C@H](O)[C@H]4O)cc32)cc1` [Compound A13], the IC50 against SGLT1 was over 10 µM; at SGLT2, 0.01 to 1 µM.

Broadly, the IC50 is the point on the concentration scale where inhibition reaches its midpoint.
